One data set relates to rgRSV224 virus. The data set can be described thus: Antiviral activity: rgRSV224 (GFP) replication in HeLa cells. In kind it is cell-based, respiratory syncytial virus (RSV). As to conditions: averaged data of several repeat experiments. On the procedure: (§1) Black 384-well clear-bottom microtiter plates (Corning, Amsterdam, The Netherlands) were filled via acoustic drop ejection using the echo liquid handler (Labcyte, Sunnyvale, California). 200 nL of compound stock solutions (100% DMSO) were transferred to the assay plates. 9 serial 4-fold dilutions of compound were made, creating per quadrant the same compound concentration. The assay was initiated by adding 10 µL of culture medium to each well (RPMI medium without phenol red, 10% FBS-heat inactivated, 0.04% gentamycin (50 mg/mL). All addition steps are done by using a multidrop dispenser (Thermo Scientific, Erembodegem, Belgium). Next, rgRSV224 virus (MOI = 1) diluted in culture medium was added to the plates. rgRSV224 virus is an engineered virus that includes an additional GFP gene (Hallak LK, Spillmann D, Collins PL, Peeples ME. Glycosaminoglycan sulfation requirements for respiratory syncytial virus infection; Journal of virology (2000), 74(22), 10508-13) and was in-licensed from the NIH (Bethesda, MD, USA). Finally, 20 µL of a HeLa cell suspension (3,000 cells/well) were plated. Medium, virus- and mock-infected controls were included in each test. The wells contain […] DMSO per volume. Cells were incubated at 37° C. in a 5% CO2 atmosphere. Three days post-virus exposure, viral replication was quantified by measuring GFP expression in the cells by an in house developed MSM laser microscope (Tibotec, Beerse, Belgium). The EC50 was defined as the 50% inhibitory concentration for GFP expression. In parallel, compounds were incubated for three days in a set of white 384-well microtiter plates (Corning) and the cytotoxicity of compounds in HeLa cells was determined by measuring the ATP content of the cells using the ATPlite kit (Perkin Elmer, Zaventem, Belgium) according to the manufacturer’s instructions. The CC50 was defined as the 50% concentration for cytotoxicity.

The nature of data set [1]: Cytotoxicity in HeLa cells (ATP content, ATPlite kit). It counts as cell-based. The conditions noted are these: human, TOX HELA CC50. As for the experimental part: as §1
Background: Cellular ATP, detected with luciferase, serves as a proxy for viable cell number.

Where [2] appears, read: human respiratory syncytial virus, HeLa, 72 h, read-out: RSV HELA EC50, HeLa cells, rgRSV224 MOI = 1, GFP expression three days post-virus exposure.

Where two headings read alike, the source gives them in different places. Bounds are passed on as bounds.

In the case of `COc1cc(C(=O)NCC(O)(c2nc(-c3ccc(F)cc3)cc(C(C)(C)O)c2F)C(F)(F)F)cc2cc(C)nnc12` (racemic) [compound 279, (RS)Methoxy-3-Methyl-N-(3,3,3-Trifluoro-2-(3-Fluoro-6-(4-Fluorophenyl)-4-(2-Hydroxypropan-2-yl)Pyridin-2-yl)-2-Hydroxypropyl)Cinnoline-6-Carboxamide], in the data set on rgRSV224 virus (setting [2]), the EC50 (commonly the concentration at which the effect is half-maximal) is 47 nM. Also, the CC50 (in general, the concentration at which the toxic effect on the cells reaches its halfway point) at 3 days in data set [1] came to 16000 nM.
Regarding `COc1cc(C(=O)NC[C@](O)(c2cc(C(C)(C)O)c(F)c(-c3ccc(F)cc3)n2)C2CC2(C)C)cc2cc(C)nnc12` (single isomer, unassigned) [compound 294, N-((-)(2,2-dimethylcyclopropyl)(5-fluoro-6-(4-fluorophenyl)-4-(2-hydroxypropanyl)pyndmyl)hydroxyethyl)-8-methoxy-3-methylcmnoline-6-carboxamide], in the data set with rgRSV224 virus (setting [2]), the half-maximal effective concentration (EC50) was 4.9 nM. The midpoint of cytotoxicity in data set [1], the CC50 at 3 days, lay at 13000 nM.
The matching figures for `COc1cc(C(=O)NC[C@@](O)(c2cc(C(C)(C)O)c(F)c(-c3ccc(F)cc3)n2)C2CC2(C)C)cc2cc(C)nnc12` (single isomer, unassigned) [compound 295, N-((+)(2,2-dimethylcyclopropyl)(5-fluoro-6-(4-fluorophenyl)-4-(2-hydroxypropanyl)pyridinyl)hydroxyethyl)-8-methoxy-3-methylcinnoline-6-carboxamide]: 180 nM and 12000 nM.
For the compound `COc1cc(C(=O)NC[C@](O)(c2cc(C(C)(C)O)c(F)c(-c3ccc(F)cc3)n2)C2C[C@H]2F)cc2cc(C)nnc12` (single isomer, unassigned) [compound 300, N-((*S)(5-Fluoro-6-(4-Fluorophenyl)-4-(2-Hydroxypropanyl)Pyridinyl)((1*S,2*R)Fluorocyclopropyl)Hydroxyethyl)-8-Methoxy-3-Methylcinnoline-6-Carboxamide], in the data set on rgRSV224 virus (setting [2]), the EC50 came out at 0.7 nM. In addition, in data set [1], the CC50 at 3 days worked out at 27000 nM.
The matching figures for `COc1cc(C(=O)NC[C@@](O)(c2cc(C(C)(C)O)c(F)c(-c3ccc(F)cc3)n2)C2C[C@@H]2F)cc2cc(C)nnc12` (single isomer, unassigned) [compound 301, N-((*R)(5-Fluoro-6-(4-Fluorophenyl)-4-(2-Hydroxypropanyl)Pyridinyl)((1*R,2*S)Fluorocyclopropyl)Hydroxyethyl)-8-Methoxy-3-Methylcinnoline-6-Carboxamide]: 336 nM and 22000 nM.
In the case of `COc1cc(C(=O)NC[C@](O)(c2cc(C(C)(C)O)c(F)c(-c3ccc(F)cc3)n2)C2C[C@@H]2F)cc2cc(C)nnc12` (single isomer, unassigned) [compound 302, N-((*S)(5-Fluoro-6-(4-Fluorophenyl)-4-(2-Hydroxypropanyl)Pyridinyl)((1*S.2*S)Fluorocyclopropyl)Hydroxyethyl)-8-Methoxy-3-Methylcinnoline-6-Carboxamide], in the data set on rgRSV224 virus (setting [2]), the EC50 was determined as 1.2 nM. In data set [1], this compound displayed a CC50 at 3 days above 25000 nM.
The matching figures for `COc1cc(C(=O)NC[C@@](O)(c2cc(C(C)(C)O)c(F)c(-c3ccc(F)cc3)n2)C2C[C@H]2F)cc2cc(C)nnc12` (single isomer, unassigned) [compound 303, N-((*R)(5-Fluoro-6-(4-Fluorophenyl)-4-(2-Hydroxypropanyl)Pyridinyl)((l*R, 2*R)Fluorocyclopropyl)Hydroxyethyl)-8-Methoxy-3-Methylcinnoline-6-Carboxamide]: 295 nM and 23000 nM.
On to `Cc1cnc2c(OC3CC3)cc(C(=O)NC[C@](O)(c3cc(C(C)(C)O)c(F)c(-c4ccc(F)cc4)n3)C(F)(F)F)cc2c1` [compound 323, (-)Cyclopropoxy-3-Methyl-N-(3,3,3-Trifluoro-2-(5-Fluoro-6-(4-Fluorophenyl)-4-(2-Hydroxypropan-2-yl)Pyridin-2-yl)-2-Hydroxypropyl)Quinoline-6-Carboxamide], for which the EC50 in the data set with rgRSV224 virus (read-out: RSV HELA EC50, HeLa cells, rgRSV224 MOI = 1, GFP expression three days post-virus exposure) amounted to 3.8 nM.

Source of the values: patent US20230203004A1, “RSV INHIBITING 3-SUBSTITUTED QUINOLINE AND CINNOLINE DERIVATIVES” (Janssen Sciences Ireland Unlimited Company, priority 2020, published 2023).
